Data set [1] is described as follows: Solubility determination (PBS 7.4, SIF, SGF). In kind it is physicochemical. The note with it: simulated intestinal fluid (SIF), kinetic from dmso stock; simulated intestinal fluid pH 6.8, 25° C., 2 hours; read-out: Solubility SIF. Here is the method: Preparation of stock solutions: The stock solutions of test compounds and control compound diclofenac were prepared in DMSO at the concentrations of 10 mM.
Simulated Gastric Fluid (SGF): An aqueous mixture including hydrochloric acid, sodium chloride, and pepsin (pH=1.2).
Simulated Intestinal Fluid (SIF): Prepared by dissolving 6.8 g of KH2PO4 into about 500 mL ultrapure water and adjust the solution to a pH 6.8 with 0.1 M NaOH. 10 g trypsin is then dissolved into ultrapure water. The two solutions are mixed well and diluted with ultrapure water to a final volume of 1000 mL.
485 μL of (SIF, SGF, PBS 7.4, FESSIF, or FESSGF) was added into each vial of the cap-less Solubility Sample plate. The assay was performed in duplicate. Add one stir stick to each vial and seal using a molded PTFE/Silicone plug. […] After completion of the 2 hours, plugs were removed and the stir sticks were removed using a big magnet, the samples from the Solubility Sample plate were transferred into the filter plate. Using the Vacuum Manifold, all the samples were filtered. Aliquot of 5 μL and 5 μL DMSO were taken from the filtrate followed by addition of 490 μL of a mixture of H2O and acetonitrile containing internal standard (1:1). A certain proportion of ultrapure water was used to dilute the diluent according to the peak shape. The dilution factor was changed according to the solubility values and the LC-MS signal response.
Preparation of 300 μM standards (STD): From the 10 mM DMSO STD plate, 6 μL was transferred into the remaining empty plate, and then 194 μL of DMSO was added to that plate to have a STD concentration of 300 μM. From the 300 μM DMSO STD plate, 5 μL DMSO STD and 5 μL SIF was transferred into the remaining empty plate, and then 490 μL of a mixture of H2O and acetonitrile containing internal standard (1:1) was added to that plate to have a final STD concentration of 3 μM. A certain proportion of ultrapure water was used to dilute the diluent according to the peak shape. The concentrations of the standard samples were changed according to the LC-MS signal response.
Procedure for sample analysis: The plate was placed into the well plate autosampler. The samples were evaluated by LC-MS/MS analysis.
Data analysis: All calculations were carried out using Microsoft Excel. The filtrate was analyzed and quantified against a standard of known concentration using LC coupled with mass spectral peak identification and quantitation. Solubility values of the test compound and control compound were calculated as follows: […]
Any value of the compounds that was not within the specified limits was rejected and the experiment was repeated.

Data set [2] deals with PI3Ka (Homo sapiens (Human), UniProt P42336). As to the kind of experiment: Z'-LYTE / Adapta kinase assay, PI3Ka. In kind it is biochemical. The note with it: for inhibition at 0.1 µM: read-out: PI3Ka % Inh. @ 100 nM. An excerpt:
(§1) The Z′-LYTE® biochemical assay employs a fluorescence-based, coupled-enzyme format and is based on the differential sensitivity of phosphorylated and non-phosphorylated peptides to proteolytic cleavage (FIG. 6). The peptide substrate is labeled with two fluorophores one at each end—that make up a FRET pair. In the primary reaction, the kinase transfers the gamma-phosphate of ATP to a single tyrosine, serine or threonine residue in a synthetic FRET-peptide. In the secondary reaction, a site-specific protease recognizes and cleaves non-phosphorylated FRET-peptides. Phosphorylation of FRET-peptides suppresses cleavage by the Development Reagent. Cleavage disrupts FRET between the donor (i.e., coumarin) and acceptor (i.e., fluorescein) fluorophores on the FRET-peptide, whereas uncleaved, phosphorylated FRET-peptides maintain FRET. A ratiometric method, which calculates the ratio (the Emission Ratio) of donor emission to acceptor emission after excitation of the donor fluorophore at 400 nm, is used to quantitate reaction progress.
(§2) A significant benefit of this ratiometric method for quantitating reaction progress is the elimination of well-to-well variations in FRET-peptide concentration and signal intensities. As a result, the assay yields very high Z′-factor values (>0.7) at a low percent phosphorylation.
(§3) Both cleaved and uncleaved FRET-peptides contribute to the fluorescence signals and therefore to the Emission Ratio. The extent of phosphorylation of the FRET-peptide can be calculated from the Emission Ratio.
(§4) Enzyme: The ADAPTA universal kinase assay is a homogenous, fluorescent based immunoassay for the detection of ADP. In contrast to ATP depletion assays, the ADAPTA assay is extremely sensitive to ADP formation such that a majority of the signal change occurs in the first 10-20% conversion of ATP to ADP. This makes the ADAPTA universal kinase assay ideally suited for use with low activity kinases.
(§5) The principle of the ADAPTA universal kinase assay is outlined below. The assay itself can be divided into two phases: a kinase reaction phase, and an ADP detection phase. In the kinase reaction phase, all components required for the kinase reaction are added to the well, and the reaction is allowed to incubate for 60 minutes.
(§6) Z′-LYTE® Assay Conditions:
(§7) Test Compounds: The Test Compounds are screened in 1% DMSO (final) in the well. For 10 point titrations, 3-fold serial dilutions are conducted from the starting concentration.
(§8) Peptide/Kinase Mixtures: All Peptide/Kinase Mixtures are diluted to a 2× working concentration in the appropriate Kinase Buffer.
(§9) ATP Solution: All ATP Solutions are diluted to a 4× working concentration in Kinase Buffer (50 mM HEPES pH 7.5, 0.01% BRIJ-35, 10 mM MgCl2, 1 mM EGTA). ATP Km apparent is previously determined using a Z′-LYTE® assay.
(§10) Development Reagent Solution: The Development Reagent is diluted in Development Buffer. […]
(§11) 2.5 μL—4× Test Compound or 100 nL 100× plus 2.4 μL kinase buffer. 2. 5 μL—2× Peptide/Kinase Mixture. 3. 2.5 μL—4× ATP Solution. 4. 30-second plate shake. 5. 60-minute Kinase Reaction incubation at room temperature. 6. 5 μL—Development Reagent Solution. 7. 30-second plate shake. 8. 60-minute Development Reaction incubation at room temperature. 9.

The target in data set [3] is EGFR (Homo sapiens (Human), UniProt P00533). As to the kind of experiment: Z'-LYTE / Adapta kinase assay, EGFR. Format: biochemical. The note with it: for inhibition at 0.1 µM: read-out: EGFR % Inh. @ 100 nM.
Excerpt: as §1, §2, §3, §4, §5, §6, §7, §8, §9, §10, §11

Data set [4] has as its target DNA-PK (Homo sapiens (Human), UniProt P78527). As to the kind of experiment: Z'-LYTE / Adapta kinase assay, DNA-PK. To be noted: for inhibition at 0.1 µM: read-out: DNA-PK % Inh. @ 100 nM. In kind it is biochemical.
Excerpt: as §1, §2, §3, §4, §5, §6, §7, §8, §9, §10, §11

The structures appear in SMILES notation. Values after ≈ are worked out from the molar mass of the structure shown.

Chain of EGFR (P00533 25-1210): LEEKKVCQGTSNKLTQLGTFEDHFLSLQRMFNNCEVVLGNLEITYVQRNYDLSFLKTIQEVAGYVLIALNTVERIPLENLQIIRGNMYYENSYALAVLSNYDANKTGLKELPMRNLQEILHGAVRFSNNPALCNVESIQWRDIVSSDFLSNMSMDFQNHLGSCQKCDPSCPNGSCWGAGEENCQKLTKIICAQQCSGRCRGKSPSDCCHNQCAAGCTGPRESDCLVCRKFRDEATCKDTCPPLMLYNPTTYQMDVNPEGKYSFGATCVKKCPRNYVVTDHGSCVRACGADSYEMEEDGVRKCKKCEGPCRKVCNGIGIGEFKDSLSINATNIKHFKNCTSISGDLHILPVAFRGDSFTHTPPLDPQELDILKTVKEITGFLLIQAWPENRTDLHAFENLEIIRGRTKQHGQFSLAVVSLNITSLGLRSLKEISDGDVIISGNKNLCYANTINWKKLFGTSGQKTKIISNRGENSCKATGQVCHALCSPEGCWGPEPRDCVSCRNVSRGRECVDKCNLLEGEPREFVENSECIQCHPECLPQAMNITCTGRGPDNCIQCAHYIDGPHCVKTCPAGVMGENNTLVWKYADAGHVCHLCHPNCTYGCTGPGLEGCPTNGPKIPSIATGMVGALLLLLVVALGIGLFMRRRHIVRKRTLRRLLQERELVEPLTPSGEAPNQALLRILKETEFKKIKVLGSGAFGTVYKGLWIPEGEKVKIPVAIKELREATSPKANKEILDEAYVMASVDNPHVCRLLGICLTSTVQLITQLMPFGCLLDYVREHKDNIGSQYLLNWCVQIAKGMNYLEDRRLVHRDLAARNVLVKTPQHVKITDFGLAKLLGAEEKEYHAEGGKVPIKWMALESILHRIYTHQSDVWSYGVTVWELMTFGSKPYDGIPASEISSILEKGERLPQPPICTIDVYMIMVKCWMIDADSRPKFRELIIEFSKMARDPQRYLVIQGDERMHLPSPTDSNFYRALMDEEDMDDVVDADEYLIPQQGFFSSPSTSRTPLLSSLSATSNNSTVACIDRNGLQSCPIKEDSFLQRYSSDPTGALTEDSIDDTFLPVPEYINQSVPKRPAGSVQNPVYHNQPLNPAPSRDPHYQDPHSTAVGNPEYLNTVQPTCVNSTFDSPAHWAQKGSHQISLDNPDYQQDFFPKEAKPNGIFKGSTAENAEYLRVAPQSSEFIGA
Chain of PI3Ka (P42336 whole entry): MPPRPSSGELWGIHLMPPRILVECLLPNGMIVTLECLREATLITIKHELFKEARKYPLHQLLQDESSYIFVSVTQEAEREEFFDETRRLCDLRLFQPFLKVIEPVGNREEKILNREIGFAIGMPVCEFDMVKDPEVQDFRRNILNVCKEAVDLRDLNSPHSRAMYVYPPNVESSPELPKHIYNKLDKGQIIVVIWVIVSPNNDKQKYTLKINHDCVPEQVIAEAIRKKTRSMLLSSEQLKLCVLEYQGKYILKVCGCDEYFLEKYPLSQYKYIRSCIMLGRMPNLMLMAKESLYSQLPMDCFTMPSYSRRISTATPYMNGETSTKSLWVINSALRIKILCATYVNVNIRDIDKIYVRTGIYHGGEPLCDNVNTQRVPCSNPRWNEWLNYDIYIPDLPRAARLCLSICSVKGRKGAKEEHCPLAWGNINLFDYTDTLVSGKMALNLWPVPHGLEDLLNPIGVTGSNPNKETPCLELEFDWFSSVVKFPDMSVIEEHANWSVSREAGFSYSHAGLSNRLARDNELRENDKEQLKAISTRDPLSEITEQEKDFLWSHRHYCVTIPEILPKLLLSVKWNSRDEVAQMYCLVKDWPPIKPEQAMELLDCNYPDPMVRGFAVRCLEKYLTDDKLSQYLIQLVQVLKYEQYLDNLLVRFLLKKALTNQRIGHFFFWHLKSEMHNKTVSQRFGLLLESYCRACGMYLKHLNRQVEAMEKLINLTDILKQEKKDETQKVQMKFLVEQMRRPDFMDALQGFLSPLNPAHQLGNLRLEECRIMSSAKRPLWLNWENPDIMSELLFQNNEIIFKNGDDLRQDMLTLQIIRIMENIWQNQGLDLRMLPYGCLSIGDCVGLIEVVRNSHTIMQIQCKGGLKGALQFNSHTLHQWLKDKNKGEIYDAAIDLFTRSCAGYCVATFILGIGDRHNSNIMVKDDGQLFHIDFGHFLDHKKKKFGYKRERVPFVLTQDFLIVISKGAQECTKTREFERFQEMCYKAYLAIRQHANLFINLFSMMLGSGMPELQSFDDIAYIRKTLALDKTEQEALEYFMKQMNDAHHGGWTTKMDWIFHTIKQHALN
Chain of PI3Ka (P27986 whole entry partner): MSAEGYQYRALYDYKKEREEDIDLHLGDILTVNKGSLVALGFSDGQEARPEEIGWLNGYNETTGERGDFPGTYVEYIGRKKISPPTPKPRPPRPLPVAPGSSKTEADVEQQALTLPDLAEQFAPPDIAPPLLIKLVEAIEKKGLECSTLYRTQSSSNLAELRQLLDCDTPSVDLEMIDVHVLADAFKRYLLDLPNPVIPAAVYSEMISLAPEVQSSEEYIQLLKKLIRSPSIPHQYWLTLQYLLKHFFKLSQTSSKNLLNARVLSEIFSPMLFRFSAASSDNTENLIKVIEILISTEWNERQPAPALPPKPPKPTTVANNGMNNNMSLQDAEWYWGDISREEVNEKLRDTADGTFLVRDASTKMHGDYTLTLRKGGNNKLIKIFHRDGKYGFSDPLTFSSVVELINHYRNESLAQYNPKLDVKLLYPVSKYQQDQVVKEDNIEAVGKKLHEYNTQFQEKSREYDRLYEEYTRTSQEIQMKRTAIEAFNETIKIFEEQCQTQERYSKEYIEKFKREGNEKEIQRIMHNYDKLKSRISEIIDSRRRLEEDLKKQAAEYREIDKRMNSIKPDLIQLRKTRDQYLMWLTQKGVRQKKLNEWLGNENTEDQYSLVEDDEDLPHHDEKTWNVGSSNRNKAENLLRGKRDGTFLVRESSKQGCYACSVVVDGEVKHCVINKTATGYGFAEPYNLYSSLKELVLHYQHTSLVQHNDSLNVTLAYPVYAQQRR

For the compound `CC(Nc1ncnc2ccc(-c3cnc(N)nc3)cc12)c1ccccc1` (stereo not shown) [Compound 7, 6-(2-aminopyrimidin-5-yl)-N-(1-phenylethyl)quinazolin-4-amine], in data set [1], the solubility at 2 h is 20 to 100 µM (≈ 6.85 to 34.2 µg/mL). For the same compound, the inhibition at 0.1 µM in data set [2] lay in the range of 10 to 80%; in data set [3] it was 80 to 90%; in data set [4], 10 to 80%.

`COc1cc(-c2ccc3ncnc(NC(C)c4ccccc4)c3c2)cnc1OC` (stereo not shown) [Compound 22, 6-(5,6-dimethoxy-3-pyridyl)-N-(1-phenylethyl) quinazolin-4-amine]: the solubility at 2 h in data set [1] was 20 to 100 µM (≈ 7.73 to 38.6 µg/mL). Moreover, the IC50 in data set [2] is 20 to 200 nM; in data set [4], greater than 200 nM. For the same compound, the inhibition at 0.1 µM in data set [2] and in data set [4] was 10 to 80% throughout.

For `CC(Nc1c(C#N)cnc2ccc(-c3cncc(-c4n[nH]c(=O)o4)c3)cc12)c1ccccc1` (stereo not shown) [Compound 129, 6-[5-(2-oxo-3H-1,3,4-oxadiazol-5-yl)-3-pyridyl]-4-(1-phenylethylamino) quinoline-3-carbonitrile], the solubility at 2 h in data set [1] was no more than 20 µM. For the same compound, the IC50 in data set [2] lay in the range of 20 to 200 nM; in data set [3], 2 to 20 nM; in data set [4] it was 2 to 20 nM. Besides, the inhibition at 0.1 µM in data set [2] is 10 to 80%; in data set [3], 80 to 90%; in data set [4] it was 80 to 90%.

What is called solubility is how much of the substance goes into solution per volume. The IC50 is the point on the concentration scale where inhibition reaches its midpoint. Read a high IC50 as weaker potency in that assay.

(Values after US11673876B2, “Substituted aminobenzyl heteroaryl compounds as EGFR and/or PI3K inhibitors” (Mekanistic Therapeutics LLC, priority 2020, dated 2023).)
